Legend:
Type in all cases: in vivo, mouse
[1] = tested on: hippocampal gene expression (NanoString gene sets and genes); test: NanoString nCounter hippocampal gene expression after co-injection of LPS and lumateperone
From the text: NanoString. The mouse neuropathology panel includes 770 genes associated with themes of neurotransmission, neuron-glia interaction, neuroplasticity, cell structure integrity, neuroinflammation and metabolism. A total of 13 housekeeping genes are used for expression normalization (Aars: NM_146217.4, Asb10: NM_080444.4, Ccdc127: NM_024201.3, Cnot10: NM_153585.5, Csnk2a2: NM_009974.3, Fam104a: NM_138598.5, Gusb: NM_010368.1, Lars: NM_134137.2, Mto1: NM_026658.2, Supt7l: NM_028150.1, Tada2b: NM_001170454.1:3224, Tbp: NM_013684.3:70, and Xpnpep1: NM_133216.3:1826, see FIG. 1-1). Hippocampal RNA is extracted using the Qiagen microkit (Qiagen) and is evaluated by the Agilent 2100 Bioanalyzer (Agilent Technologies, Santa Clara, CA) to assess RNA concentration, quality, and integrity. Sample preparation, hybridization, and detection (100 ng per sample, n=5-6 per group) are carried out according to NanoString manufacturer's instructions (NanoString Technologies, Seattle, WA). The normalized data are transformed to log 2 score to express the fold change. NanoString results (raw and normalized counts) are derived from RCC files using the nSolver software (version 2.6; NanoString Technologies). A complementary gene software analysis tool, ROSALIND® Advanced Analysis Software (NanoString Technologies), is also used, which provides comprehensive free cloud-based data analysis for nCounter data by directly analyzing raw RCC files generated from NanoString. Data are imported into ROSALIND® Advanced Analysis Software for normalization, calculation of fold-changes, P values, identification of enriched pathways, and heatmaps.
It is calculated similarly to a undirected global significance score, but it takes into account the sign of the t-statistic. Scores were calculated by nSolver software, using the control group as a reference.

[2] = tested on: hippocampal mRNA (Il1b, Il6, Tnfa, Il10, Icam1, Cldn5, Csf1); test: Hippocampal mRNA (qRT-PCR), delayed injection of lumateperone 30 minutes after LPS; settings: for Hippocampal mRNA expression (delayed injection) Cldn5 / Hippocampal mRNA expression (delayed injection) Csf1 / Hippocampal mRNA expression (delayed injection) Icam1: normalized to control
Experimental: All other reagents are obtained in the highest purity available from Sigma-Aldrich (St. Louis, MO) unless otherwise noted. […] Some rodents are given a cotreatment with a subcutaneous (SC) injection of lipopolysaccharide (LPS, 500 μg/kg; Sigma-Aldrich, ref #0127:B8) diluted in 0.9% injectable saline while control group animals receive injections of all vehicles matching the experimental conditions. […] On day 2, either no injection for naïve rats, or saline or LPS is injected (1 mg/kg, SC).
Quantitative Real-Time PCR. Mouse hippocampal tissue is homogenized with glass beads in 1 mL of TRIzol reagent using a BeadBeater (Biospec Products, Bartlesville, OK). Heavy phase-lock gel tubes enabled separation of phases following the addition of 400 μL chloroform to the sample and centrifugation at 12,000 rpm for 10 minutes at room temperature. RNA is extracted using Qiagen Rneasy kit (Qiagen, Hilden, Germany). For cDNA synthesis, 2 μg of total RNA is used (SuperScript IV Reverse Transcriptase; ThermoFisher Scientific, Waltham, MA). […] In the hippocampus, 4 key markers of pro- and anti-inflammatory cytokines and chemokines (Il1b: ID Mm00434228_m1, Tnfa: ID Mm00443258_m1, 116: ID Mm00446190_m1, and I110: ID Mm01288386_m1; ThermoFisher Scientific) are initially chosen for analysis (n=5-12 per group). In subsequent experiments, the transcripts for other markers of inflammation are chosen for analysis including Icam1 (ID Mm00516023_m1; a cell adhesion molecule involved in immune cell migration), Cldn5 (ID Mm00727012_s1; a tight junctions protein), colony stimulating factor 1 (Csf1: ID Mm00432686_m1; a factor that regulates microglia function) and its receptor Csf1r (ID Mm01266652_m1), and the nucleotide binding and oligomerization domain-like receptor family pyrin domain-containing 3 inflammasome complex (Nlrp3: Mm00840904_m1). Gapdh (ID Mm99999915_g1) is chosen as a housekeeping gene. QuantStudio 7 (ThermoFisher Scientific) is used for analyzing the plates (MicroAmp Optical 384-well plates; Applied Biosystems, Waltham, MA, and ThermoFisher Scientific) that are loaded with TaqMan Universal Master Mix II without uracil-DNA glycosylate in a 20 μl reaction volume using 100 ng cDNA per well. All mRNAs are measured by qRT-PCR on ABI Prism 7900HT system using TaqMan Gene Expression Assays. Ct values of genes of interest are normalized to that of the reference gene (Gapdh).
Samples are collected 1.5 hours later (i.e., 2 hours after LPS injection).

[3] = tested on: serum cytokines IL-1b, IL-6, TNF-alpha, IL-10; test: Serum cytokine protein (Multiplex MSD) after acute restraint stress; settings: mice, 2 h restraint stress; Luma 3 mg/kg IP immediately before
Experimental: Multiplex Assays. In mouse serum, protein levels of IL-1b, IL-6, IL-10 and TNF-alpha are measured using a V-Plex Meso Scale Discovery (MSD) Multiplex spot assay Mouse Neuroinflammation 1 panel (Meso Scale Diagnostics, Rockville, MD). All samples are run in duplicates or triplicates according to manufacturer instructions and analyzed with MSD Discovery Workbench software (Meso Scale Diagnostics).
Restraint Stress Protocol.
Control mice receive vehicle treatment and are returned to their home cage before sample collection. Protein concentration is measured using the Multiplex MSD assay V-Plex technology, normalized to the control group. Results are expressed in pg/mL.

[4] = LPS 500 μg/kg-challenged mice, hippocampus 2 h, label LPS = LPS alone, label Luma = LPS + Luma 3 mg/kg, vs control group
[5] = mice, hippocampus 2 h, Luma 3 mg/kg alone (no LPS), vs control group
[6] = LPS 500 μg/kg SC-challenged mice, label LPS = LPS + vehicle, label Luma = Luma 3 mg/kg IP 30 min after LPS, 2 h after LPS
[7] = LPS 500 μg/kg SC-challenged mice, label LPS = LPS + vehicle, label Luma = Luma 3 mg/kg IP 30 min after LPS, 2 h after LPS, normalized to control (Dct)
[8] = mice, saline SC then Luma 3 mg/kg IP 30 min later (no LPS)
[9] = mice, saline SC then Luma 3 mg/kg IP 30 min later (no LPS), samples 1.5 h later, normalized to control (Dct)

## CN1CCN2c3c(cccc31)[C@@H]1CN(CCCC(=O)c3ccc(F)cc3)CC[C@@H]12 [Luma, lumateperone]
[1]; [4]
  Directed global significance score: DNA damage: 0.042
  Directed global significance score: Inflammatory signaling: −0.93
  Directed global significance score: Lipid metabolism: 0.89
  Directed global significance score: Oligodendrocyte function: 0.48
[1]; ROSALIND analysis, LPS+Luma versus LPS alone, filter P<0.04999, mice hippocampus
  Genes that promote inflammation (e.g., Osmr, Tnfrsf1a, Tnfrsf11b, Prl, Il1r1), cytokine-specific gene expression: significantly downregulates
[1]; [5]
  Directed global significance score: Adaptive immune response: 0.344
  Directed global significance score: Angiogenesis: 0.616
  Directed global significance score: Apoptosis: −0.442
  Directed global significance score: Astrocyte function: −0.837
  Directed global significance score: Autophagy: −0.731
  Directed global significance score: Carbohydrate metabolism: −0.837
  Directed global significance score: Cell cycle: −0.75
  Directed global significance score: Cellular stress: −0.432
  Directed global significance score: Cytokine signaling: −0.543
  Directed global significance score: DNA damage: −0.614
  Directed global significance score: Epigenetic regulation: 0.729
  Directed global significance score: Growth factor signaling: 0.226
  Directed global significance score: Inflammatory signaling: −1.032
  Directed global significance score: Innate immune response: −0.611
  Directed global significance score: Insulin signaling: 0.858
  Directed global significance score: Lipid metabolism: −0.818
  Directed global significance score: Matrix remodeling: −0.4
  Directed global significance score: Microglia function: 0.466
  Directed global significance score: Notch: 0.834
  Directed global significance score: Oligodendrocyte function: −1.176
  Directed global significance score: Wnt: 0.9
[2]; [6]
  Hippocampal mRNA expression (delayed injection) Cldn5: 0.20
  Hippocampal mRNA expression (delayed injection) Csf1: −0.11
[2]; [7]
  Hippocampal cytokine mRNA expression (delayed injection) IL-6: −0.10
  Hippocampal cytokine mRNA expression (delayed injection) TNF-alpha: 0.34
[2]; [8]
  Hippocampal mRNA expression (delayed injection) Cldn5: 0.33
  Hippocampal mRNA expression (delayed injection) Csf1: 0.05
  Hippocampal mRNA expression (delayed injection) Icam1: 0.28
[2]; [9]
  Hippocampal cytokine mRNA expression (delayed injection) IL-1b: 0.90
  Hippocampal cytokine mRNA expression (delayed injection) IL-6: −0.46
  Hippocampal cytokine mRNA expression (delayed injection) TNF-alpha: −0.31
[3]
  Serum cytokine concentration IL-1b: 0.81 pg/mL

## lipopolysaccharide [LPS, reference compound]
[1]; [4]
  Directed global significance score: Adaptive immune response: 0.571
  Directed global significance score: Angiogenesis: −0.144
  Directed global significance score: Apoptosis: 0.915
  Directed global significance score: Astrocyte function: 1.391
  Directed global significance score: Autophagy: 0.588
  Directed global significance score: Carbohydrate metabolism: 0.507
  Directed global significance score: Cell cycle: −0.148
  Directed global significance score: Cellular stress: 0.499
  Directed global significance score: Cytokine signaling: 0.993
  Directed global significance score: DNA damage: 0.578
  Directed global significance score: Epigenetic regulation: 0.312
  Directed global significance score: Growth factor signaling: 0.76
  Directed global significance score: Inflammatory signaling: 1.086
  Directed global significance score: Innate immune response: 0.939
  Directed global significance score: Insulin signaling: 0.28
  Directed global significance score: Lipid metabolism: −0.192
  Directed global significance score: Matrix remodeling: −0.583
  Directed global significance score: Microglia function: 0.377
  Directed global significance score: Neurons and neurotransmission: −0.422
  Directed global significance score: Notch: 0.876
  Directed global significance score: Oligodendrocyte function: 0.181
  Directed global significance score: Wnt: −0.476
[2]; [6]
  Hippocampal mRNA expression (delayed injection) Cldn5: −0.63
  Hippocampal mRNA expression (delayed injection) Csf1: 0.41
  Hippocampal mRNA expression (delayed injection) Icam1: 4.33
[2]; [7]
  Hippocampal cytokine mRNA expression (delayed injection) IL-1b: 2.89
  Hippocampal cytokine mRNA expression (delayed injection) IL-6: 1.10
  Hippocampal cytokine mRNA expression (delayed injection) IL-10: 1.88
  Hippocampal cytokine mRNA expression (delayed injection) TNF-alpha: 2.33

From US12414948B2, “Methods” (INTRA-CELLULAR THERAPIES, INC., priority 2022, dated 2025)
